Consider 1 molecule from US8269051B2, “Wickerol and method for producing the same” (The Kitasato Institute, priority 2008, dated 2012).

Values after ≈ are worked out from the molar mass of the structure shown.

One data set relates to MDCK cells. Briefly: Proliferation of MDCK cells alone (cytotoxicity). It counts as cell-based, canine. Conditions: Canis lupus familiaris; MDCK cells without virus; read-out: IC50, inhibition of proliferation of the MDCK cells alone.
For data set [1], the system named is the microorganisms shown in the Table 3. Briefly: Antimicrobial activity, overall statement. Conditions: against the microorganisms shown in the Table 3. The data set is classed as cell-based. As to the method: Antimicrobial activity of the wickerol of the present invention was as follows. Each circular filter paper (Advantec, diameter: 6 mm) was soaked with 10 μl of methanol solution of the wickerol (1 mg/ml), and then allowed to air-dry for a predetermined time to remove a solvent. After the solvent was removed, the circular filter paper was placed on each of the following test microorganism-containing agar plates, and cultured for 24 hours at 35° C. Thereafter, a diameter of a growth inhibitory circle formed around each of the circular filter papers was measured, and the results were shown in Table 3.

Data set [2] concerns influenza virus A/PR/8/34. The conditions noted are these: ratio of MDCK cytotoxicity IC50 to antiviral IC50.
Data set [3] relates to influenza virus A/PR/8/34. Briefly: microbe, parasite or virus in culture. Conditions: unidentified influenza virus, PR/8, MDCK, 72 h, read-out: IC50, inhibition of replication of influenza virus A/PR/8/34 through the infection of the MDCK cells.

As for `CC1CCC2CC3(C)CCC4C3C1(CCC4(C)O)C2(C)C` (stereo not shown) [wickerol], the IC50 with MDCK cells was determined as 7 µg/mL (≈ 24.1 µM); in data set [3] it was 0.07 µg/mL (≈ 0.241 µM). Moreover, the antimicrobial activity result in data set [1] is “almost no antimicrobial activity”. In addition, the “inhibitory activity against the influenza virus replication relative to cytotoxicity” value in data set [2] was “approximately 100 times”.
